We go through 18 molecules from paper PMC9506480, “Synthesis and Evaluation of Antiproliferative Activity, Topoisomerase IIα Inhibition, DNA Binding and Non-Clinical Toxicity of New Acridine–Thiosemicarbazone Derivatives” (Pharmaceuticals, 2022).

Data set [1] deals with MRC-5 (human lung fibroblast). As to the kind of experiment: Alamar blue cytotoxicity assay, non-cancerous MRC-5. It is filed as cell-based. To be noted: MRC5, 72 h incubation, non-cancerous cell. On the procedure:
(§1) The in vitro cytotoxic activity of the compounds (Table 1) was evaluated against cancer cell lines HCT116 (human colon carcinoma), HepG2 (human hepatocellular carcinoma), B16F10 (murine melanoma carcinoma) and non-cancerous cell line MRC-5 (human lung fibroblast) using the Alamar blue assay after 72 h of incubation; doxorubicin (DOX) was used as a positive control. The unsubstituted derivatives on the acridine cores were encoded as CL, and the disubstituted derivatives as DL.
(§2) The human cancer cell lines HCT116 (colon carcinoma) and HepG2 (hepatocellular carcinoma), the mouse cancer cell line B16-F10 (melanoma), and the non-cancerous human cell line MRC-5 (lung fibroblast) were obtained from the American Type Culture Collection (ATCC, Manassas, VA, USA) and cultured according to the ATCC animal cell culture guide. All cell lines tested negative for mycoplasma using a mycoplasma stain kit.
(§3) Cell viability was measured using the Alamar blue assay, as previously described. Cells were seeded in 96-well plates for all experiments. The compounds were dissolved in dimethyl sulfoxide (DMSO, Sigma-Aldrich) and added to each well in eight serial concentrations ranging from 0.19 to 25 μg/mL. As a positive control, doxorubicin was used. After 72 h of treatment, 20 μL of resazurin (0.312 mg/mL) was added to each well. A SpectraMax 190 Micro-plate Reader was used to measure absorbances at 570 and 595 nm (Molecular Devices, Sunnyvale, CA, USA). Nonlinear regression with 95% confidence intervals (CI 95%) was used to calculate the inhibitory concentration of 50% (IC50) using GraphPad Prism software (Intuitive Software for Science; San Diego, CA, USA).

Data set [2] deals with HepG2 (human hepatocellular carcinoma). Briefly: Alamar blue cytotoxicity assay, HepG2. The format is cell-based. The note with it: 72 h incubation. As to the method:
as §1, §2, §3

Data set [3] relates to HCT116 (human colon carcinoma). Briefly: Alamar blue cytotoxicity assay, HCT116. The format is cell-based. The note with it: HCT-116, 72 h incubation. As to the method: as §1, §2, §3
Data set [4] deals with B16-F10 (murine melanoma). Briefly: Alamar blue cytotoxicity assay, B16-F10. It is filed as cell-based. To be noted: Mus musculus, 72 h incubation. As to the method:
as §1, §2, §3

Data set [5] concerns the target T1, recombinant human topoisomerase IIα (p170) (Homo sapiens, UniProt P11388).
T1 construct: purchased Sigma-Aldrich
Briefly: Human topoisomerase IIα inhibition assay (pUC19 plasmid relaxation). The format is biochemical. From the text: Several studies have shown the ability of acridines to inhibit topoisomerases, being considered the main mechanism responsible for the antiproliferative activities of this scaffold. The possibility of the new acridine derivatives to inhibit Topo IIα in its biological function of DNA double-strand relaxation was investigated in this work. This enzymatic inhibition can be accompanied by the presence of a supercoiled or relaxed DNA band, performed with the pUC19 plasmid, as shown in Figure 2. In this study, mAMSA was used as a positive inhibition control.
For testing the ability of Topo IIα inhibition, the compounds were evaluated in the DNA plasmid relaxation assay. This test consists of evaluating the Topo IIα enzyme activity in the absence and presence of the compound, followed by electrophoresis analysis, as previously described by Almeida et al. (2016). Briefly, 100 ng pUC19 DNA plasmid (Sigma-Aldrich) and 4.0 units of recombinant human (p170) topoisomerase II (Sigma-Aldrich) in relaxation buffer without or with tested compounds were incubated for 30 min at 37 °C. The tested concentrations were […], and amsacrine (mAMSA) was used as a positive control. Reactions were terminated with 1% SDS and digested with proteinase K. Then, the reaction products were analyzed by electrophoresis gel stained with ethidium bromide and photographed under UV light. Quantitative evaluation (% of enzyme inhibition by compounds about the positive control mAMSA) of the gel bands corresponding to supercoiled DNA was performed by densitometry using image-processing software (Scion Image, version Beta 4.0.2.) according to Gouveia et al. (2018).
Figure 2 Effects of mAMSA and its acridine derivatives on topoisomerase IIα activity. Effects of derivatives and positive control on the inhibition of human topoisomerase IIα. Native supercoiled pUC19 was incubated for 30 min at 37 °C with […] of human Topo IIα in the absence (lane 2) or presence of ligands at a concentration 100 μM. Inhibition of Topo IIα-induced DNA relaxation by mAMSA (lane 3) was used as a positive control. DNA samples were run on an agarose gel followed by ethidium bromide staining.

T1 sequence (P11388 whole entry): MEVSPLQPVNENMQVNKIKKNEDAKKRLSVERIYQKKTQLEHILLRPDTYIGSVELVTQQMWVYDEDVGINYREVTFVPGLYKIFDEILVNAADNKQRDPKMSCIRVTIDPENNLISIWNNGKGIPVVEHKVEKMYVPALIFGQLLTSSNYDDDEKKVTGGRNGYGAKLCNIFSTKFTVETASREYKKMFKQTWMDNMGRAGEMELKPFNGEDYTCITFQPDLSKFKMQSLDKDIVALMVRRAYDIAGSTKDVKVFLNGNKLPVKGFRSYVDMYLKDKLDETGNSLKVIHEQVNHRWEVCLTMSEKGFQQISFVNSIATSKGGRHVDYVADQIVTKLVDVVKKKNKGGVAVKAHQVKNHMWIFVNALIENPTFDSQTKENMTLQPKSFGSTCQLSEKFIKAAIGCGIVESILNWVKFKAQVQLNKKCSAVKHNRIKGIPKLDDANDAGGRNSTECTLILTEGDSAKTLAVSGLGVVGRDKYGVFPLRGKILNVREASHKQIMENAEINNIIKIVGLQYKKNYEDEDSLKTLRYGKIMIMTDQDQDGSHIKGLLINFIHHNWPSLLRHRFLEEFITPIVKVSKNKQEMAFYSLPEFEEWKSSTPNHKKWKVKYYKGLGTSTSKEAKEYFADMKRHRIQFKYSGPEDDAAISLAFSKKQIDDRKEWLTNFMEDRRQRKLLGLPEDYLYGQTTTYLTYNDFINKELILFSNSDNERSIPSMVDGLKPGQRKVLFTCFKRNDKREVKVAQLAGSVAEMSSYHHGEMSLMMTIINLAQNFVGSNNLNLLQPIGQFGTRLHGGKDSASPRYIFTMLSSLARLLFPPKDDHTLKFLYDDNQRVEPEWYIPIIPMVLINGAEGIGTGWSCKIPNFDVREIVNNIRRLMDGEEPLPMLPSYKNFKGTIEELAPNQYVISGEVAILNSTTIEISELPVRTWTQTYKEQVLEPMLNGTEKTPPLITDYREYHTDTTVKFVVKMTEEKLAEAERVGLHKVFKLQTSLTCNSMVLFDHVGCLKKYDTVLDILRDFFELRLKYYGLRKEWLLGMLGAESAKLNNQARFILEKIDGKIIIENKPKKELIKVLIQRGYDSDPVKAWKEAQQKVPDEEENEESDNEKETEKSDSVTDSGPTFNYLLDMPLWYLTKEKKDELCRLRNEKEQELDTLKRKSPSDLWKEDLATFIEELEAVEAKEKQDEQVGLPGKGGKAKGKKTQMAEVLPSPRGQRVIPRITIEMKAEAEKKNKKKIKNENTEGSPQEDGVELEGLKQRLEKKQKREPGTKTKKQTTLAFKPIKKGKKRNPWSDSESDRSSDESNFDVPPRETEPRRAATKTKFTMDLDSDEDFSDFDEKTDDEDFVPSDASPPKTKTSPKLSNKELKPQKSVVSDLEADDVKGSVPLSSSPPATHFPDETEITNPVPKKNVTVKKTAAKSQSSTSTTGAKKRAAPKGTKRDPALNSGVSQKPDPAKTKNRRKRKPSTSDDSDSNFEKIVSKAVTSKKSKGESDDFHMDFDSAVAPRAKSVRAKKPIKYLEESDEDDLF

With `S=C(N/N=C/c1ccccc1)Nc1c2ccccc2nc2ccccc12` [CL-01, (E)-N-(acridin-9-yl)-2-benzylidenehydrazine-1-carbothioamide], the half-inhibitory concentration (IC50) in data set [1], in data set [2] and in data set [3] was over 70 µM in each case.
With `S=C(N/N=C/c1ccc(Cl)cc1)Nc1c2ccccc2nc2ccccc12` [CL-02, (E)-N-(acridin-9-yl)-2-(4-chlorobenzylidene)hydrazine-1-carbothioamide], the IC50 in data set [1], in data set [2] and in data set [3] was over 70 µM in each case.
For the molecule `COc1ccc(/C=N/NC(=S)Nc2c3ccccc3nc3ccccc23)cc1` [CL-03, (E)-N-(acridin-9-yl)-2-(4-methoxybenzylidene)hydrazine-1-carbothioamide], the half-inhibitory concentration (IC50) in data set [1], in data set [4], in data set [2] and in data set [3] was over 70 µM each time.
Consider `S=C(N/N=C/c1ccc(Cl)cc1Cl)Nc1c2ccccc2nc2ccccc12` [CL-04, (E)-N-(acridin-9-yl)-2-(2,4-dichlorobenzylidene)hydrazine-1-carbothioamide], for which the IC50 in data set [1], in data set [2] and in data set [3] was over 60 µM throughout.
`O=[N+]([O-])c1ccc(/C=N/NC(=S)Nc2c3ccccc3nc3ccccc23)cc1` [CL-05, (E)-N-(acridin-9-yl)-2-(4-nitrobenzylidene)hydrazine-1-carbothioamide]: the IC50 in data set [1] was 26.8 µM; in data set [4], 22.7 µM; in data set [2], over 60 µM; in data set [3], over 60 µM.
Consider `Cc1ccc(/C=N/NC(=S)Nc2c3ccccc3nc3ccccc23)cc1` [CL-06, (E)-N-(acridin-9-yl)-2-(4-methylbenzylidene)hydrazine-1-carbothioamide], for which the IC50 in data set [1] stood at 28 µM; in data set [4], 23.5 µM; in data set [2] it was 58.1 µM; in data set [3] it was 64.8 µM.
Regarding `Oc1cccc(/C=N/NC(=S)Nc2c3ccccc3nc3ccccc23)c1` [CL-08, (E)-N-(acridin-9-yl)-2-(3-hydroxybenzylidene)hydrazine-1-carbothioamide], the IC50 in data set [1] is 33.4 µM; in data set [4], 21.3 µM; in data set [2] it was 49.4 µM; in data set [3], 39.2 µM.
Regarding `CN(C)c1ccc(/C=N/NC(=S)Nc2c3ccccc3nc3ccccc23)cc1` [CL-09, (E)-N-(acridin-9-yl)-2-(4-(dimethylamino)benzylidene)hydrazine-1-carbothioamide], the IC50 in data set [1], in data set [2] and in data set [3] was over 60 µM each time.
`S=C(N/N=C/c1ccc(Br)cc1)Nc1c2ccccc2nc2ccccc12` [CL-10, (E)-N-(acridin-9-yl)-2-(4-bromobenzylidene)hydrazine-1-carbothioamide]: the IC50 in data set [1], in data set [2] and in data set [3] was over 60 µM in each case.
`COc1ccc2nc3cc(Cl)ccc3c(NC(=S)N/N=C/c3ccc(Cl)cc3)c2c1` [DL-02, (E)-N-(6-chloro-2-methoxyacridin-9-yl)-2-(4-chlorobenzylidene)hydrazine-1-carbothioamide] had a melting point of 144 to 145 °C. This molecule also yielded an IC50 in data set [1] of over 60 µM. In addition, in data set [4], the IC50 worked out at 30.6 µM. Moreover, the IC50 in data set [2] was over 60 µM. The molecule further displayed an IC50 in data set [3] of over 60 µM.
Turning to `COc1ccc(/C=N/NC(=S)Nc2c3ccc(Cl)cc3nc3ccc(OC)cc23)cc1` [DL-03, (E)-N-(6-chloro-2-methoxyacridin-9-yl)-2-(4-methoxybenzylidene)hydrazine-1-carbothioamide], the melting point turned out to be 148 °C. In data set [1], this molecule gave an IC50 of over 60 µM. The molecule also came in with an IC50 in data set [4] of over 60 µM. In data set [2], this molecule yielded an IC50 of over 60 µM. The same molecule came in with an IC50 in data set [3] of over 60 µM.
In the case of `COc1ccc2nc3cc(Cl)ccc3c(NC(=S)N/N=C/c3ccc(Cl)cc3Cl)c2c1` [DL-04, (E)-N-(6-chloro-2-methoxyacridin-9-yl)-2-(2,4-dichlorobenzylidene)hydrazine-1-carbothioamide], the melting point lay within 192 to 193 °C. The 50% inhibitory concentration (IC50) in data set [1] is over 60 µM. For the same molecule, the half-inhibitory concentration (IC50) in data set [4] was over 60 µM. The molecule further showed an IC50 in data set [2] of over 60 µM. The molecule further showed an IC50 in data set [3] of over 60 µM.
`COc1ccc2nc3cc(Cl)ccc3c(NC(=S)N/N=C/c3ccc([N+](=O)[O-])cc3)c2c1` [DL-05, (E)-N-(6-chloro-2-methoxyacridin-9-yl)-2-(4-nitrobenzylidene)hydrazine-1-carbothioamide] displayed a melting point of 164 to 165 °C. This molecule came in with an IC50 in data set [1] of over 60 µM. In data set [4], this molecule returned an IC50 of over 60 µM. This molecule returned a concentration for half-maximal inhibition (IC50) in data set [2] of over 60 µM. In addition, in data set [3], the concentration for half-maximal inhibition (IC50) is over 60 µM.
Turning to `COc1ccc2nc3cc(Cl)ccc3c(NC(=S)N/N=C/c3ccc(C)cc3)c2c1` [DL-06, (E)-N-(6-chloro-2-methoxyacridin-9-yl)-2-(4-methylbenzylidene)hydrazine-1-carbothioamide], the melting point was in the range of 157 to 158 °C. In data set [1], the IC50 was over 60 µM. In addition, the “inhibition of Topo IIα enzymatic activity (in words)” value in data set [5] (100 µM) is recorded as “did not show inhibition capacity”. In data set [4], this molecule displayed an IC50 of 26.3 µM. Moreover, the IC50 in data set [2] was 33.4 µM. In data set [3], this molecule registered a half-inhibitory concentration (IC50) of over 60 µM.
In turn, `COc1ccc2nc3cc(Cl)ccc3c(NC(=S)N/N=C/c3ccc(O)cc3)c2c1` [DL-07, (E)-N-(6-chloro-2-methoxyacridin-9-yl)-2-(4-hydroxybenzylidene)hydrazine-1-carbothioamide] gave a melting point of 163 to 164 °C. Also, the IC50 in data set [1] was found to be 23.6 µM. Moreover, the “inhibition of Topo IIα enzymatic activity (in words)” value in data set [5] (100 µM) is given as “able to inhibit the enzymatic activity”. In addition, the “% of enzyme inhibition” value in data set [5] (100 µM, densitometry, relative to positive control mAMSA, '-' = no inhibition) is 74%. Further, the inhibition at 100 µM in data set [5] (densitometry, relative to positive control mAMSA, '-' = no inhibition, read-out: % of enzyme inhibition) was over 74%. In data set [4], this molecule had an IC50 of 21.1 µM. Also, the IC50 in data set [2] was 24.8 µM. Besides, inhibition in data set [3] was half-maximal at 28.5 µM (IC50).
On to `COc1ccc2nc3cc(Cl)ccc3c(NC(=S)N/N=C/c3ccc(N(C)C)cc3)c2c1` [DL-09, (E)-N-(6-chloro-2-methoxyacridin-9-yl)-2-(4-(dimethylamino)benzylidene)hydrazine-1-carbothioamide], for which the melting point lay in the range of 149 to 150 °C. For the same molecule, in data set [1], the half-inhibitory concentration (IC50) is over 60 µM. The IC50 in data set [4] was found to be 46 µM. For the same molecule, the IC50 in data set [2] was over 60 µM. The molecule further returned a half-inhibitory concentration (IC50) in data set [3] of over 60 µM.
As to `COc1ccc2nc3cc(Cl)ccc3c(NC(=S)N/N=C/c3ccc(Br)cc3)c2c1` [DL-10, (E)-2-(4-bromobenzylidene)-N-(6-chloro-2-methoxyacridin-9-yl)hydrazine-1-carbothioamide], the melting point is 162 to 163 °C. For the same molecule, the IC50 in data set [1] is over 50 µM. The same molecule had an IC50 in data set [4] of 34.6 µM. In data set [2], this molecule had a concentration for half-maximal inhibition (IC50) of 20.9 µM. For the same molecule, in data set [3], the IC50 was over 50 µM.
Turning to `COc1cccc2c1C(=O)c1c(O)c3c(c(O)c1C2=O)C[C@@](O)(C(=O)CO)C[C@@H]3O[C@H]1C[C@H](N)[C@H](O)[C@H](C)O1` [DOX, doxorubicin, reference compound], the concentration for half-maximal inhibition (IC50) in data set [1] was determined as 2.22 µM; in data set [4], 0.03 µM; in data set [2] it was 0.15 µM; in data set [3] it was 0.15 µM.
